Measurements from patent US20130338092A1, “COMPOUNDS AND METHODS FOR TARGETING LEUKEMIC STEM CELLS” (The Broad Institute, Inc., priority 2011, published 2013).
Entries after “also recorded” stand apart in the source; their conditions may differ.

What was measured:
[1] = tested on: human AML cell lines (U937, THP-1, NOMO-1, SKM-1, NB4, and OCI-AML3); assay: AML cell line screen (CellTiter-Glo); format: cell-based
Method: Nomo-1, THP-1, SKM-1, NB4, and U937 cell lines were grown in RPMI (12-702F, BioWhittaker), 10% FBS (10082-147, Gibco), and 1% Pen-Strep (15140-122, Gibco) and OCI-AML3 was grown in α-MEM (36453, Stem Cell Technologies), 10% FBS (10082-147, Gibco), and 1% Pen-Strep (15140-122, Gibco). 3000 cells were plated in each well in 30 μl in white, 384 well plates (3570, Corning) and 16 hours later 100 nl of the appropriate compound was added to each well. 72 hours later the plates were cooled to room temperature and 30 μl of CellTiterGlo reagent (G7570, Promega) diluted 1:1 in PBS was added to each well and the plates were analyzed using an Envision (Perkin Elmer).
First, a traditional small molecule screen was performed on six human AML cell lines (U937, THP-1, NOMO-1, SKM-1, NB4, and OCI-AML3), two of which (NOMO-1, THP-1) contain the same oncogene (MLL-AF9) used to generate the primary leukemia cells utilized in our coculture system. The cell lines were grown in isolation under standard conditions, treated with the 160 compounds at 8-point dose, and three days later the viability of each well was quantified using CellTiter-Glo reagent. The IC50s from these AML cell line screens were then compared to the IC50s from the coculture screens. […] As discussed, the existence of such differentially-active compounds is consistent with our hypothesis that coculturing can expand the pool of therapeutically promising compounds identified in high throughput format.

[2] = tested on: normal primary human CD34+ cells; assay: Alamar Blue assay for human progenitor cell toxicity; conditions: for IC50: Homo sapiens, 168 h, read-out: Normal Progenitor* IC50
Method: Normal G-CSF mobilized CD34+ cells (AllCells, LLC, Emeryville, Calif.), normal BM CD34 cells (MSKCC, New York, N.Y.) and cord blood CD34+ cells (New York Blood Center, New York) were previously frozen and thawed out before the proliferation assay was set up in 384-well plates. Briefly, 50 μl of IMDM medium containing 20% FBS (Gemini Bio-Product, West Sacramento, Calif.), 20 ng/ml of recombinant human Kit Ligand (rhKL), 20 ng/ml of rh-Interleukin-3 (rhIL-3), 20 ng/ml of rhG-CSF, 6 units/ml of rhEPO, 10-42-mercaptoethanol, 2 mM glutamine, 50 u/ml penicillin, 50 μg/ml streptomycin, 1,000 viable CD34+ cells in the presence of various doses of Broad compounds (drug-treated group) or 0.1% DMSO (control group) were incubated at 37° C. After 6 days, 5 μl of AlamaBlue (AbD Serotec, Raleigh, N.C.) was added to each well and further incubated overnight. The fluorescence signal was then measured with GeminiXS microplate reader (Molecular Devices, Sunnyvale, Calif.). Effect of small molecules to proliferation of CD34+ cells was reported as Relative fluorescent intensity (Relative Fluorescent Intensity=Fluorescent Intensity (drug-treated)/Fluorescent Intensity (Control).
Finally, experiments were performed to examine whether BRD7116 or lovastatic acid were likely to cause myelosuppression, a type of deleterious toxicity in patients resulting from harm to normal human hematopoietic progenitor cells. This consideration is especially important as conventional therapies currently used in the clinic have myelosuppressive toxicities that are dose-limiting. To this end, a hematopoietic progenitor assay was employed to compare the effects of BRD7116 and lovastatic acid to effects given by such known myelosuppressive compounds. In this assay, normal primary human CD34^+ cord blood cells were plated with cytokines in suspension, treated with compound for 7 days, and then examined for viability relative to DMSO treated controls.

[3] = tested on: CD34+ cells from primary human leukemia samples; assay: Human CD34+ CAFC assay, leukemia samples; format: cell-based; conditions: 1.25 μM to 10 μM, 18 hours exposure, read at 5 weeks (2 weeks FLT3-ITD)
Method: Samples were centrifuged over Ficoll-Paque PLUS (GE Heathcare) step gradient (2000×g for 30 min in 50 ml tubes) to obtain mononuclear cells and then CD34^+ cells were selected with immunomagnetic beads (MACS Cell Separation, Miltenyi Biotec, Auburn, Calif.), except in one case, NPM1 mutation, which was CD34^− by flow cytometry and mononuclear cells were used. 50,000 cells were placed into 12.5 cm^2 flasks (Becton Dickinson Labware, Franklin Lakes, N.J.) in co-culture with the MS-5 mouse bone marrow-derived stromal cell line (kindly provided by Dr. Itoh, Dept. of Biology, Niigata University, Japan) and DMSO control and the number of final cobblestones was later read. The number of cells needed to form one cobblestone was then placed in triplicate for each sample with each drug at serial drug dilutions from 10 μM to 0.63 μM as well as with DMSO 0.5% for control purposes and incubated overnight with Iscove's modified Dulbecco's medium (IMDM, in house media preparation laboratory)+20% fetal calf serum (FCS, Atlanta Biologicals, Lawrenceville, Ga.) with glutamine (2 mM/ml, in house media preparation laboratory), monothioglycerol (MTG, 10 nM/ml, Sigma Cell Culture, St. Louis Mo.), c-Kit ligand (20 ng/ml, Amgen, Thousand Oaks, Calif.), Flt ligand (20 ng/ml, Imclone, Bridgewater, N.J.), TPO (20 ng/ml, Amgen) and IL-3 (20 ng/ml, Amgen). Cells were then washed to remove the drugs and placed into 96 well cell culture plates (Becton Dickinson) with α-MEM (in house media preparation laboratory)+12.5% FCS+12.5% horse serum (Gemini Bio-products, West Sacramento, Calif.) with glutamine, MTG, hydrocortisone (1 nM/ml, Sigma) and IL-3 in co-culture with MS-5 stromal cells. […] The same procedure was followed with normal CD34+ cells obtained from cord blood.
The cells were treated with compound or DMSO carrier control at four doses (ranging from 1.25 μM to 10 μM) in triplicate for 18 hours, washed thoroughly, then plated onto human stromal MS-5 monolayers (Itoh, K., Tezuka, H., Sakoda, H., Konno, M., Nagata, K., Uchiyama, T., Uchino, H., and Mori, K. J. (1989). Exp Hematol 17, 145-153.) and maintained in coculture with one subsequent half media change. After 5 weeks (2 weeks for the FLT3-ITD sample (Moore, M. A., Dorn, D. C., Schuring a, J. J., Chung, K. Y., and Morrone, G. (2007). Exp Hematol 35, 105-116.)), cobblestone formation was determined, and dose-response curves against the 7 cell types were generated for each compound.

primary leukemia cells = assay: Annexin V apoptosis assay; format: cell-based, murine; conditions: 22 hours in suspension, compared to DMSO control
Method: Compounds were added to a final DMSO concentration of 0.02%. […] The cells were analyzed by flow cytometry on a FacsCanto II (Becton Dickinson).

dsRed+ LSCs = assay: Syngeneic transplantation of compound-treated triple cocultures, leukemia onset / survival; format: in vivo, mice; conditions: cocultures treated 48 hours ex vivo, then transplanted; vs DMSO
Method: Heterotypic cocultures containing dsRed+ LSCs, CD45.1+ HSPCs, and GFP+ MSCs were exposed to compounds for 48 hours, then transplanted en masse post trypsinization with untreated wild-type helper splenocytes (CD45.1+CD45.2+) into lethally irradiated, wildtype recipient animals (CD45.2+). Latency of leukemia onset was compared for mice receiving cocultures treated with compound compared to DMSO control treated cocultures. The engraftment of the normal HSPCs treated and injected along with the leukemia cells was quantified by FACs analysis of the bone marrow of mice alive at the 16 week endpoint across treatments.
As in vivo readouts may better reflect hematopoietic stem cell function compared to in vitro readouts (Purton, L. E., and Scadden, D. T. (2007). Cell Stem Cell 1, 263-270.; Bock, T. A. (1997). Stem Cells 15 Suppl 1, 185-195.), our results were confirmed using murine transplantation studies. […] Compounds that increase disease latency relative to DMSO control are considered active. […] Bone marrow repopulating ability is a functional measure of normal HSPCs, assessed by quantifying long-term engraftment and differentiation patterns in recipient mice (Bock, T. A. (1997). Stem Cells 15 Suppl 1, 185-195.; Nguyen, L. V., Vanner, R., Dirks, P., and Eaves, C. J. (2012). Nat Rev Cancer 12, 133-143.). […]

MLL-AF9 LSC = assay: Triple coculture (LSCs and HSPCs on primary MSCs), leukemia cells; format: cell-based, murine; conditions: for leukemic cells in triple coculture: 200 nM lovastatic acid or 1 μM BRD7116, 5 days; for IC50: Mus musculus, MLL-AF9, murine LSCs in triple coculture with HSPCs on MSCs
Method: As in the original assay approach, treatment of these triple cocultures began one day after hematopoietic cell plating and was assessed 5 days later.
An in vitro therapeutic index was determined for each compound, a comparative measure of the potential for anti-LSC efficacy relative to the potential for dose-limiting toxicities to normal HSCs (myeloablation), or to normal progenitors (myelosuppression). Specifically, ratios were created using the IC50s for primary murine HSPCs in triple coculture as the numerator, and the IC50s for primary murine leukemia inhibition in triple coculture as the denominator, toward assessing the potential for HSC harm relative to LSC inhibition.

Compound	inhibition of AML cell lines at maximal doses ([1]; of the positive control)	inhibition of AML cell lines ([1]; relative to DMSO control, concentrations greater than 30 μM)	toxicity to hematopoietic progenitor cells [2]	IC50 [2]	leukemia cobblestone inhibition (human CAFC) [3]	induction of apoptosis (Annexin V) (primary leukemia cells)	latency of leukemia onset / survival of recipient mice (dsRed+ LSCs)	leukemic cells in triple coculture (MLL-AF9 LSC)	IC50 (MLL-AF9 LSC)	activity against AML cell lines [1]	IC50 ([1]; Homo sapiens, read-out: IC50 across the AML cell lines)	leukemic cells in triple coculture (MLL-AF9 LSC; listed as lovastatin)
CC1(C)C(C(=O)Nc2ccc(S(=O)(=O)c3ccc(NC(=O)C4C(C)(C)C4(C)C)cc3)cc2)C1(C)C [BRD7116]	50%	roughly 50%	minimal toxicity	10 µM	leukemia cobblestone inhibition was observed across all six primary leukemia samples	mild induction of apoptosis	mild, but statistically significant prolonged latency of leukemia onset	selective loss of the leukemia population; also recorded: selectively cleared the dsRed^+ leukemic cells	0.5 µM			
CCC(C)C(=O)OC1CC(C)C=C2C=CC(C)C(CCC(O)CC(O)CC(=O)O)C21 (stereo not shown) [Lovastatic acid]			minimal toxicity	10 µM	leukemia cobblestone inhibition was observed across all six primary leukemia samples	underwent apoptosis	survived substantially longer than the DMSO control group	selectively cleared the dsRed^+ leukemic cells	0.1 µM	only weak activity	> 10 µM	selective loss of the leukemia population
